Experimental data from patent US4596890A, “Benzoylureas, and their production and use” (priority 1983, dated 1986).
≈ marks a conversion by molar mass, not a printed value. Where two headings read alike, the source gives them in different places.

Legend:
Assay type in all cases: in vivo
[1] = test system: tobacco cutworm (Spodoptera litura); assay: Test Example 2: insecticidal test on tobacco cutworm fourth larvae, artificial diet; settings: 144 h
Protocol: (§1) Anyone of Compound Nos. 1 to 12 (10 parts), polyoxyethylene styrylphenyl ether (14 parts), calcium dodecylbenzenesulfonate (6 parts), xylene (35 parts) and dimethylformamide (35 parts) are mixed well to make an emulsifiable concentrate preparation.
An emulsifiable concentrate preparation formulated as in Formulation Example 2 was diluted with water to make a designed dilution of the test compound. An artificial diet (13 g) for tobacco cutworm (Spodoptera litura) was impregnated with said dilution (2 ml) and placed into a polyethylene-made cup of 11 cm in diameter. Fourth larvae (10 insects) of tobacco cutworm were released therein. Six days thereafter, observation was made to determine the number of death, and the LC50 value (i.e. lethal concentration to 50% death) was calculated therefrom (two replications).

[2] = test system: common mosquito (Culex pipiens pallens); assay: Test Example 1: emergence of common mosquito from last instar larvae; settings: 3.5 ppm in water; twenty last instar larvae; feeding up to emergence; two replications
Protocol: as §1
An emulsifiable concentrate preparation formulated as in Formulation Example 2 was diluted with water to make a dilution containing the test compound in a concentration of 3.5 ppm. The dilution (100 ml) was charged in a plastic cup of 180 ml volume, and twenty last instar larvae of common mosquito (Culex pipiens pallens) were released therein. Feeding was continued up to emergence, and the rate of emergence was observed (two replications).

[3] = test system: housefly (Musca domestica); assay: Test Example 4: emergence of housefly from nits reared on treated artificial culture; settings: 10 ppm dilution (10,000 fold, 28 ml) in artificial culture; fifty nits, cultivated until pupation
Protocol: as §1
Powdered animal feed (2 g) was thoroughly mixed with bran (14 g). An emulsifiable concentrate preparation formulated as in Formulation Example 2 was diluted with water to make a 10,000 fold dilution (corresponding to 10 ppm; 28 ml) and added to the above mixture. The resultant mixture was stirred well to make an artificial culture for housefly. Fifty nits of housefly (Musca domestica) were cultivated therein until their pupation. The obtained pupae were placed into a plastic cup, and the rate of emergence was observed.

[4] = test system: rice stem borer (Chilo suppressalis); assay: Test Example 3: insecticidal test on rice stem borer ten-day old larvae, artificial diet; settings: 192 h, eight days, two replications
Protocol: as §1
An emulsifiable concentrate preparation formulated as in Formulation Example 2 was diluted with water to make a designed dilution of the test compound. Five grams of artificial diet placed into a polyethylene-made cup of 5.5 cm in diameter was impregnated with said dilution (1 ml). Ten-day old larvae (10 insects) of rice stem borer (Chilo suppressalis) were released therein. Eight days thereafter, observation was made to determine the number of death, and the LC50 value was calculated therefrom (two replications).

[5] = lethal concentration to 50% death, fourth larvae, artificial diet, six days, two replications, read-out: LC50

Row | Structure (SMILES) | LC50 [1] [µg/mL] | LC50 [1, 5] [µg/mL] | Rate of emergence [2] [%] | Rate of emergence [3] [%] | LC50 [4] [µg/mL]
1 | O=C(NC(=O)c1c(F)cccc1F)Nc1ccc(Cl)cc1 [A, Diflubenzuron, reference compound] | 4.4 (≈ 14.2 µM) |  |  |  | 
2 | CNC(=O)ON=C(C)SC [B, Methomyl, reference compound] | 8 (≈ 49.3 µM) |  |  |  | 
3 | O=C(NC(=O)c1c(F)cccc1F)Nc1ccc(Oc2cc(Cl)cc(Cl)c2)cc1 [C, 3-(2,6-difluorobenzoyl)-1-[4-(3,5-dichlorophenoxy)phenyl]urea, reference compound] |  | 6.5 (≈ 14.9 µM) |  |  | 
4 | Cc1cc(NC(=O)NC(=O)c2c(F)cccc2F)cc(C)c1Oc1cc(F)cc(F)c1 [Compound 1, N-2,6-difluorobenzoyl-N'-4-(3,5-difluorophenoxy)-3,5-dimethylphenylurea] |  | 0.5 (≈ 1.16 µM) | 0 | 2 | 
5 | O=C(NC(=O)c1c(F)cccc1F)Nc1cc(Cl)c(Oc2cc(F)cc(F)c2)c(Cl)c1 [Compound 2, N-2,6-difluorobenzoyl-N'-4-(3,5-difluorophenoxy)-3,5-dichlorophenylurea] |  | 2.5 (≈ 5.28 µM) | 0 | 0 | 12 (≈ 25.4 µM)
6 | O=C(NC(=O)c1c(F)cccc1F)Nc1cc(Cl)c(Oc2c(F)c(F)c(F)c(F)c2F)c(Cl)c1 [Compound 3] |  | 2.3 (≈ 4.36 µM) | 0 | 0 | 
7 | Cc1cc(NC(=O)NC(=O)c2ccccc2Cl)cc(C)c1Oc1cc(F)cc(F)c1 [Compound 4] |  | 1.5 (≈ 3.48 µM) | 0 |  | 10 (≈ 23.2 µM)
8 | O=C(NC(=O)c1ccccc1Cl)Nc1cc(Cl)c(Oc2cc(F)cc(F)c2)c(Cl)c1 [Compound 5] |  |  | 0 |  | 
9 | O=C(NC(=O)c1ccccc1Cl)Nc1cc(Cl)c(Oc2c(F)c(F)c(F)c(F)c2F)c(Cl)c1 [Compound 6] |  | 2.7 (≈ 5.14 µM) | 0 | 0 | 
10 | O=C(NC(=O)c1ccccc1Cl)Nc1cc(Cl)c(Oc2c(Cl)c(Cl)c(Cl)c(Cl)c2Cl)c(Cl)c1 [Compound 7] |  |  | 0 |  | 
11 | O=C(NC(=O)c1c(F)cccc1F)Nc1cc(Cl)c(Oc2c(Cl)c(Cl)c(Cl)c(Cl)c2Cl)c(Cl)c1 [Compound 8] |  |  | 0 |  | 15 (≈ 24.6 µM)
12 | Cc1cc(NC(=O)NC(=O)c2c(F)cccc2F)cc(C)c1Oc1c(F)c(F)c(F)c(F)c1F [Compound 9] |  | 0.64 (≈ 1.32 µM) | 0 |  | 
13 | Cc1cc(NC(=O)NC(=O)c2ccccc2Cl)cc(C)c1Oc1c(F)c(F)c(F)c(F)c1F [Compound 10] |  | 1.2 (≈ 2.48 µM) | 0 |  | 
14 | Cc1cc(NC(=O)NC(=O)c2c(F)cccc2Cl)cc(C)c1Oc1cc(F)cc(F)c1 [Compound 11] |  | 1.6 (≈ 3.56 µM) | 0 |  | 
15 | Cc1cc(NC(=O)NC(=O)c2c(F)cccc2Cl)cc(C)c1Oc1c(F)c(F)c(F)c(F)c1F [Compound 12] |  |  | 0 |  | 
